Assay results: patent US7138361B2, “Herbicidal heterocycles” (E. I. du Pont de Nemours and Company, priority 2000, dated 2006)

How the values were obtained:
Assay type in all cases: in vivo
[1] = test system: morningglory (Ipomoea hederacea); assay: Test C preemergence
Outline: (§1)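 Pre- and postemergence treatments used a non-phytotoxic solvent/surfactant formulation; post-treated plants measured 2 to 18 cm. Greenhouse hold 12–14 d; % control estimated visually relative to controls.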

Sunflower [2] = assay: Test C preemergence
[3] = test system: yellow nutsedge (Cyperus esculentus); assay: Test C preemergence
Outline: as §1

[4] = test system: lambsquarters (Chenopodium album); assay: Test C preemergence
Outline: as §1

[5] = test system: giant foxtail (Setaria faberii); assay: Test C preemergence
Outline: as §1

[6] = test system: pigweed (Amaranthus retroflexus); assay: Test C preemergence
Outline: as §1

[7] = test system: bermudagrass (Cynodon dactylon); assay: Test C preemergence
Outline: as §1

[8] = test system: johnsongrass (Sorghum halepense); assay: Test C preemergence
Outline: as §1

corn (Zea mays) = assay: Test C preemergence
Outline: as §1

[9] = test system: velvetleaf (Abutilon theophrasti); assay: Test C preemergence
Outline: as §1

[10] = test system: crabgrass (Digitaria sanguinalis); assay: Test C preemergence
Outline: as §1

soybean (Glycine max) = assay: Test C preemergence
Outline: as §1

[11] = test system: cocklebur (Xanthium strumarium); assay: Test C preemergence
Outline: as §1

[12] = test system: goosegrass (Eleusine indica); assay: Test C preemergence
Outline: as §1

Nightshade = assay: Test C preemergence
kochia (Kochia scoparia) = assay: Test C preemergence
Outline: as §1

[13] = test system: woolly cupgrass (Eriochloa villosa); assay: Test C preemergence
Outline: as §1

[14] = test system: Surinam grass (Brachiaria decumbens); assay: Test C preemergence
Outline: as §1

[15] = test system: barnyardgrass (Echinochloa crus-galli); assay: Test C flooded paddy test; conditions: for Barnyardgrass plant response rating: Flooded Paddy, scale 0 to 100, 0 no effect, 100 complete control; for Plant response rating, Barnyardgrass: flooded paddy test, scale 0 to 100 (0 no effect, 100 complete control)
Outline: (§2)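 Greenhouse-maintained for 12 to 14 days after treatment, the paddy plants (2-leaf stage at application) were scored visually against controls. A score of 0 denotes no effect and a score of 100 denotes complete control.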

[16] = test system: smallflower flatsedge (Cyperus difformis); assay: Test C flooded paddy test; conditions: for Flatsedge plant response rating: Flooded Paddy, scale 0 to 100, 0 no effect, 100 complete control; for Plant response rating, Flatsedge: flooded paddy test, scale 0 to 100 (0 no effect, 100 complete control)
Outline: as §2

[17] = test system: duck salad (Heteranthera limosa); assay: Test C flooded paddy test; conditions: for Ducksalad plant response rating: Flooded Paddy, scale 0 to 100, 0 no effect, 100 complete control; for Plant response rating, Ducksalad: flooded paddy test, scale 0 to 100 (0 no effect, 100 complete control)
Outline: as §2

Sunflower [18] = assay: Test C preemergence; conditions: Rate 250 g/ha, visual evaluation after 12 to 14 days
[19] = Preemergence, Rate 500 g/ha, scale 0 to 100
[20] = Rate 62 g/ha, scale 0 to 100, 0 no effect, 100 complete control
[21] = preemergence, Rate 31 g/ha, scale 0 to 100
[22] = preemergence, Rate 250 g/ha, visual evaluation after 12 to 14 days
[23] = preemergence, Rate 125 g/ha, scale 0 to 100, 0 no effect, 100 complete control

Structure (SMILES): CCC(CC)c1ccn(C2SCN(c3cccc(C(F)(F)F)c3)C2=O)n1 (stereo not drawn) [Compound 25]
- Plant response rating, Morningglory [1, 19]: 90
- Plant response rating, Morningglory [1, 20]: 20
- Plant response rating, Morningglory [1, 21]: 0
- Plant response rating (0 to 100), Morningglory [1, 22]: 100
- Plant response rating, Morningglory [1, 23]: 30
- Plant response rating, Sunflower (Sunflower [2]; [20]): 30
- Plant response rating, Sunflower (Sunflower [2]; Rate 500 g/ha, scale 0 to 100): 70
- Plant response rating, Nutsedge [3, 19]: 0
- Plant response rating, Nutsedge [3, 20]: 0
- Plant response rating, Nutsedge [3, 21]: 0
- Plant response rating (0 to 100), Nutsedge [3, 22]: 40
- Plant response rating, Nutsedge [3, 23]: 0
- Plant response rating, Lambsquarters [4, 19]: 100
- Plant response rating, Lambsquarters [4, 20]: 100
- Plant response rating, Lambsquarters [4, 21]: 100
- Plant response rating (0 to 100), Lambsquarters [4, 22]: 100
- Plant response rating, Lambsquarters [4, 23]: 100
- Plant response rating, Foxtail, Giant [5, 19]: 90
- Plant response rating, Foxtail, Giant [5, 20]: 90
- Plant response rating, Foxtail, Giant [5, 21]: 20
- Plant response rating (0 to 100), Foxtail, Giant [5, 22]: 100
- Plant response rating, Foxtail, Giant [5, 23]: 70
- Plant response rating, Pigweed [6, 19]: 90
- Plant response rating, Pigweed [6, 20]: 60
- Plant response rating, Pigweed [6, 21]: 100
- Plant response rating (0 to 100), Pigweed [6, 22]: 90
- Plant response rating, Pigweed [6, 23]: 100
- Plant response rating, Bermudagrass [7, 19]: 100
- Plant response rating, Bermudagrass [7, 20]: 100
- Plant response rating, Bermudagrass [7, 21]: 90
- Plant response rating (0 to 100 where 0 is no effect and 100 is complete control), Bermudagrass [7, 22]: 100
- Plant response rating, Bermudagrass [7, 23]: 100
- Plant response rating, Johnsongrass [8, 19]: 100
- Plant response rating, Johnsongrass [8, 20]: 70
- Plant response rating, Johnsongrass [8, 21]: 30
- Plant response rating (0 to 100), Johnsongrass [8, 22]: 90
- Plant response rating, Johnsongrass [8, 23]: 90
- Plant response rating, Corn (corn (Zea mays); [19]): 50
- Plant response rating, Corn (corn (Zea mays); [20]): 0
- Plant response rating, Corn (corn (Zea mays); [21]): 0
- Plant response rating (0 to 100), Corn (corn (Zea mays); [22]): 20
- Plant response rating, Corn (corn (Zea mays); [23]): 20
- Plant response rating, Velvetleaf [9, 19]: 20
- Plant response rating, Velvetleaf [9, 20]: 30
- Plant response rating, Velvetleaf [9, 21]: 0
- Plant response rating (0 to 100), Velvetleaf [9, 22]: 70
- Plant response rating, Velvetleaf [9, 23]: 0
- Plant response rating, Crabgrass [10, 19]: 100
- Plant response rating, Crabgrass [10, 20]: 100
- Plant response rating, Crabgrass [10, 21]: 100
- Plant response rating (0 to 100), Crabgrass [10, 22]: 100
- Plant response rating, Crabgrass [10, 23]: 100
- Plant response rating, Soybean (soybean (Glycine max); [19]): 60
- Plant response rating, Soybean (soybean (Glycine max); [20]): 0
- Plant response rating, Soybean (soybean (Glycine max); [21]): 20
- Plant response rating (0 to 100), Soybean (soybean (Glycine max); [22]): 50
- Plant response rating, Soybean (soybean (Glycine max); [23]): 30
- Plant response rating, Cocklebur [11, 19]: 70
- Plant response rating, Cocklebur [11, 20]: 0
- Plant response rating, Cocklebur [11, 21]: 0
- Plant response rating (0 to 100), Cocklebur [11, 22]: 100
- Plant response rating, Cocklebur [11, 23]: 0
- Plant response rating, Goosegrass [12, 19]: 100
- Plant response rating, Goosegrass [12, 20]: 100
- Plant response rating, Goosegrass [12, 21]: 100
- Plant response rating (0 to 100), Goosegrass [12, 22]: 100
- Plant response rating, Goosegrass [12, 23]: 100
- Plant response rating, Nightshade (Nightshade; Rate 31 g/ha, scale 0 to 100): 20
- Plant response rating, Nightshade (Nightshade; [20]): 100
- Plant response rating, Nightshade (Nightshade; Rate 125 g/ha, scale 0 to 100, 0 no effect, 100 complete control): 100
- Plant response rating, Nightshade (Nightshade; Rate 500 g/ha, scale 0 to 100): 100
- Plant response rating, Kochia (kochia (Kochia scoparia); [19]): 100
- Plant response rating, Kochia (kochia (Kochia scoparia); [20]): 50
- Plant response rating, Kochia (kochia (Kochia scoparia); [21]): 60
- Plant response rating (0 to 100), Kochia (kochia (Kochia scoparia); [22]): 100
- Plant response rating, Kochia (kochia (Kochia scoparia); [23]): 100
- Plant response rating, Cupgrass, Woolly [13, 19]: 100
- Plant response rating, Cupgrass, Woolly [13, 20]: 80
- Plant response rating, Cupgrass, Woolly [13, 21]: 60
- Plant response rating (0 to 100), Cupgrass, Woolly [13, 22]: 100
- Plant response rating, Cupgrass, Woolly [13, 23]: 100
- Plant response rating, Surinam grass [14, 19]: 80
- Plant response rating, Surinam grass [14, 20]: 40
- Plant response rating, Surinam grass [14, 21]: 20
- Plant response rating (0 to 100), Surinam grass [14, 22]: 80
- Plant response rating, Surinam grass [14, 23]: 80
- Barnyardgrass plant response rating ([15]; Rate 250 g/ha): 100
- Barnyardgrass plant response rating ([15]; Rate 500 g/ha): 100
- Plant response rating, Barnyardgrass ([15]; Rate 62 g/ha): 100
- Plant response rating, Barnyardgrass ([15]; Rate 125 g/ha): 100
- Flatsedge plant response rating ([16]; Rate 250 g/ha): 100
- Flatsedge plant response rating ([16]; Rate 500 g/ha): 100
- Plant response rating, Flatsedge ([16]; Rate 62 g/ha): 100
- Plant response rating, Flatsedge ([16]; Rate 125 g/ha): 100
- Ducksalad plant response rating ([17]; Rate 250 g/ha): 100
- Ducksalad plant response rating ([17]; Rate 500 g/ha): 100
- Plant response rating, Ducksalad ([17]; Rate 62 g/ha): 100
- Plant response rating, Ducksalad ([17]; Rate 125 g/ha): 100
- Plant response rating (0 to 100), Sunflower (Sunflower [18]): 70
